Where “and” joins values, the source holds several entries; their conditions need not be identical. Equal entries are not always repeated. Where two headings read alike, the source gives them in different places. Marks after values point to notes of the source that are not given here.
Key:
RAW264.7 cells = assay: Macrophage viability in the same high content assay; conditions: infected RAW264.7 macrophages, 72 h
HepG2 cells = assay: HepG2 cytotoxicity (CellTiter-Glo, 72 h); assay type: cell-based, human; conditions: for HepG2 cytotoxicity TC50 Galactose / HepG2 cytotoxicity TC50 Glucose: 72 h
Experimental: (§1) Cytotoxicity against HepG2 cells was measured after 72 h. Cells were seeded in 384-well plates at 1,800 cells per well. Compounds were added as a 10-point three-fold serial dilution after 24 h (final assay concentration of 1% DMSO). CellTiter-Glo® reagent (Promega) was added and relative luminescence units (RLU) measured. Data were normalized to the DMSO controls. Curves were fitted using the Levenberg–Marquardt algorithm; TC50 was calculated as the compound concentration required to reduce cell viability by 50%.
(§2) We further evaluated cytotoxicity using the HepG2 cell line cultured with either glucose or galactose in the medium (Table 2). HepG2 cells cultured with galactose rely on mitochondrial oxidative phosphorylation rather than glycolysis which increases their susceptibility to mitochondrial toxicants allowing us to identify compounds with mitochondrial toxicity ([Kamalian et al., 2015]).

M. tuberculosis [1] = assay: Minimum inhibitory concentration in liquid medium (axenic culture); assay type: cell-based, Mycobacterium tuberculosis; conditions: Mycobacterium tuberculosis, 120 h; for IC50: read-out: Anti-tubercular activity in axenic culture IC50; for IC90: read-out: Anti-tubercular activity in axenic culture IC90
M. tuberculosis [2] = assay: High content assay of intracellular M. tuberculosis growth in infected RAW264.7 macrophages; assay type: cell-based, Mycobacterium tuberculosis H37Rv-LP; conditions: Mycobacterium tuberculosis, RAW264.7, 72 h, M. tuberculosis in RAW264.7 cells, MOI 1, 72 h; read-out: Intracellular activity Anti-tubercular activity IC50
Experimental: Compounds were obtained in 384-well plates as 10 mM DMSO stock solutions and tested as described ([Manning et al., 2017]). Briefly, assay plates were prepared in clear bottom, black 384-well plates with 30 μl cRPMI and 0.6 μl compound in columns 3–22 (final concentration of 10 μM compound, 1% DMSO). […] INH and STA were also included in dose response on each plate. RAW264.7 cells were infected with M. tuberculosis DREAM8 as described ([Manning et al., 2017]) at an MOI of 1 for 24 h and extracellular bacteria removed by washing. Cells were recovered using Accumax, harvested, washed and resuspended in serum-free RPMI; 30 μl of infected cells were dispensed into each well at 3,300 cells/well. Plates were incubated for 72 h, 10 μl of 5X SYBR Green I was added and plates were imaged with an ImageXpress Micro High Content Screening System (Molecular Devices) using a ×4 objective and FITC and Texas Red channels. MetaXpress was used to analyze images. The integrated intensity of M. tuberculosis or macrophages was calculated for each well. Growth inhibition was calculated for each test well by normalizing to the average integrated intensity of the DMSO control wells. IC50 was calculated as the compound concentration required to reduce bacterial growth by 50%. TC50 was calculated as the compound concentration required to reduce macrophage viability by 50%.

[3] = HepG2 cytotoxicity (CellTiter-Glo, 72 h); assay type: cell-based, human; conditions: human
Experimental: as §1, §2

Row | Compound | Intracellular activity Cytotoxicity TC50 (RAW264.7 cells) | HepG2 cytotoxicity TC50 Galactose (HepG2 cells; human) | HepG2 cytotoxicity TC50 Glucose (HepG2 cells; human) | IC50 (M. tuberculosis [1]; extracellular, 5 days, OD590) | IC90 (M. tuberculosis [1]; extracellular, 5 days, OD590) | IC50 (M. tuberculosis [2]) | ratio of TC50glu/TC50gal (HepG2 cells; HepG2, glucose vs galactose) | IC50 at 72 h ([3]; HepG2 cytotoxicity IC50 Galactose) | IC50 at 72 h ([3]; HepG2 cytotoxicity IC50 Glucose) | HepG2 cytotoxicity TC50 Galactose (HepG2 cells; galactose medium) | HepG2 cytotoxicity TC50 Glucose (HepG2 cells; glucose medium) | IC50 (M. tuberculosis [1]) | IC90 (M. tuberculosis [1])
1 | CCOC(=O)c1nnn(-c2nc(N3CCCC3)nc(N3CCCC3)n2)c1-c1ccccc1 [TPN-0095040] | 31 ± 18 ^b µM | >50 ^c µM | >50 ^c µM | > 10 µM | > 10 µM |  |  |  |  |  |  |  | 
2 | Cc1ccc(NC(=O)CCN2CCN(c3ccc(Cl)cc3)CC2)cc1 [TPN-0095037] | 54 ± 26 ^c µM | 56 ± 4 ^b µM | 84 ± 2.5 ^b µM | > 20 µM | > 20 µM | 2 ± 0.53 µM |  |  |  |  |  |  | 
3 | COc1c(Cl)ccc(Cl)c1C(=O)Nc1sc2c(c1C(N)=O)CCCC2 [TPN-0073571] | 15 ± 5 µM and 15 ± 5.0 ^b µM | 26 ± 5.0 ^b µM | >100 ^b µM |  |  |  | ~4 | 26 ± 5 µM | > 100 µM |  |  |  | 
4 | COc1ccc(C2Oc3ccc(Cl)cc3C3=C2C(c2ccc(OC)cc2)n2ncnc2N3)cc1 (stereo not shown) [TPN-0095029] | >50 ^b µM | >50 ^b µM | >50 ^b µM | > 10 µM | > 10 µM | > 50 µM |  |  |  |  |  |  | 
5 | COc1ccc(OCCNC(=O)c2cc([N+](=O)[O-])cc([N+](=O)[O-])c2)cc1 [TPN-0095031] | 40 ± 25 ^e µM |  |  |  |  | 0.036 ± 0.007 µM |  |  |  | 52 ± 0.47 ^c µM | 57 ± 6.2 ^c µM | 0.2 ± 0.07 µM | 0.4 ± 0.14 µM
6 | Clc1ccc(Nc2nc(-c3cccs3)cs2)cc1 [TPN-0095025] | 26 ± 7.1 ^c µM | 28 ± 1.5 ^b µM | 35 ± 1.0 ^a µM | > 20 µM | > 20 µM | 4.4 ± 1.7 µM |  |  |  |  |  |  | 
7 | O=C(CN1CCC(Cc2ccccc2)CC1)Nc1ccc(Cl)cn1 [TPN-0095042] | 21 ± 9.3 ^c µM | 19 ± 1.0 ^b µM | 26 ± 3.0 ^b µM | > 10 µM | > 10 µM | 3.7 ± 0.62 µM |  |  |  |  |  |  | 
8 | O=c1c(/C=N/Cc2cccnc2)c(NCc2cccnc2)nc2ccccn12 [TPN-0095033] | >100 ^c µM | >100 ^c µM | >100 ^c µM | > 20 µM | > 20 µM | 3.4 ± 2.6 µM |  |  |  |  |  |  | 
9 | O=C(CN(C1=NCCCS1)c1ccccc1)c1ccc(Cl)c(Cl)c1 [TPN-0095036] | 27 ± 2.8 ^c µM | 20 ± 0.47 ^c µM | 21 ± 3.4 ^c µM | > 20 µM | > 20 µM | 3.5 ± 0.97 µM |  |  |  |  |  |  | 
10 | Fc1ccc(C2CC(c3ccc(Cl)cc3Cl)n3ncnc3N2)cc1 (stereo not shown) [TPN-0095039] | 24 ± 6.1 ^c µM | 30 ± 3.2 ^d µM | 29 ± 7.7 ^e µM | 14 ± 2.1 µM | 18 ± 1.4 µM | 2.1 ± 0.74 µM |  |  |  |  |  |  | 
11 | Clc1ccc(C2C=C(c3ccc(Br)cc3)Nc3ncnn32)cc1 (stereo not shown) [TPN-0095026] | 19 ± 12 ^b µM | 18 ± 5 ^b µM | 19 ± 3.5 ^b µM | 19 ± 1 µM | > 20 µM |  |  |  |  |  |  |  | 
12 | COc1ccc(CNC(=O)c2c(C)nc3ccccn23)cc1 [TPN-0095027] | 72 ± 16 ^d µM | 22 ± 2.2 ^c µM | 76 ± 12 ^c µM | 0.17 ± 0.02 µM | 0.6 ± 0.2 µM | 0.1 ± 0.01 µM |  |  |  |  |  |  | 
13 | Cc1ccc(Nc2nc(C(N)=O)c(N)s2)cc1 [TPN-0095028] | 54 ± 20 ^b µM | 62 ± 6.2 ^c µM | 54 ± 9.4 ^c µM | > 20 µM | > 20 µM | 4.4 ± 1.3 µM |  |  |  |  |  |  | 
